Results taken from ChEMBL document CHEMBL3992545, “Discovery and dimeric approach of novel Natriuretic Peptide Receptor A (NPR-A) agonists” (Bioorg Med Chem, 2017).
Values belong to the compound of their own block, whether it stands above or below them. Calls of active or inactive are those of the source. The rule behind the calls is not given here.

What was measured:
[1] = molecular target: T1, Atrial natriuretic peptide receptor 1 (Homo sapiens, UniProt P16066); assay: Agonist activity at human NPR-A expressed in CHO cells assessed as increase in cGMP accumulation after 30 mins by radioimmunoassay; format: cell-based
T1 sequence (P16066 whole entry): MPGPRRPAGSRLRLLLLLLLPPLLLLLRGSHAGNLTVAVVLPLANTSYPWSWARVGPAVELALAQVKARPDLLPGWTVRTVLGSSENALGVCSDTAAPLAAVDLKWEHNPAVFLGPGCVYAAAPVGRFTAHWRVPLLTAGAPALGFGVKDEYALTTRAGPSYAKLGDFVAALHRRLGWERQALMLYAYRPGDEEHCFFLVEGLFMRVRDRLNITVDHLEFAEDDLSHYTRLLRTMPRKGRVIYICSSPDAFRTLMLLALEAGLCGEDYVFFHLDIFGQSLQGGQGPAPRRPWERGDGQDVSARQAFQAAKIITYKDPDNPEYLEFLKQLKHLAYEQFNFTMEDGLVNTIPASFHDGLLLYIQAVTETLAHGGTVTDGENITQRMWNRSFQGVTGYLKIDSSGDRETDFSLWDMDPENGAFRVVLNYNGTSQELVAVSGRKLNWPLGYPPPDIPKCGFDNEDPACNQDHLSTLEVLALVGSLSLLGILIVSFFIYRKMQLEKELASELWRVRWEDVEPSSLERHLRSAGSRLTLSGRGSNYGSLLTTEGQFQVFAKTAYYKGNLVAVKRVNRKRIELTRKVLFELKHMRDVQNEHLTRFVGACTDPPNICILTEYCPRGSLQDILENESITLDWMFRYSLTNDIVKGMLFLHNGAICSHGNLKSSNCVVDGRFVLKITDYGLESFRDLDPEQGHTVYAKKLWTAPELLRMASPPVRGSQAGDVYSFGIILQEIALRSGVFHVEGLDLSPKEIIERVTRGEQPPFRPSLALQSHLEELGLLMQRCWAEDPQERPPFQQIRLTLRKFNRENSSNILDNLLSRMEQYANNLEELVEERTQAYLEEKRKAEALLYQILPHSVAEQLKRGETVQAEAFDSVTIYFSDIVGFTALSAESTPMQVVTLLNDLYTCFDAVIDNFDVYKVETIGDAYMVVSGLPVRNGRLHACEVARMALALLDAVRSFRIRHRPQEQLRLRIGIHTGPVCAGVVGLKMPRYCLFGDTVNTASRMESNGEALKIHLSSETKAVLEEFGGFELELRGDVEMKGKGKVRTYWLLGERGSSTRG

[2] = test system: Rattus norvegicus; assay: In vivo agonist activity at NPR-A in iv dosed Crl:CD(SD) rat assessed as increase in cGMP accumulation in kidney administered as infusion over 30 mins by radioimmunoassay; format: functional, organism-based
[3] = molecular target: T2, Atrial natriuretic peptide receptor 1 (Rattus norvegicus, UniProt P18910); assay: Agonist activity at rat NPR-A expressed in CHO cells assessed as increase in cGMP accumulation after 15 mins by fluorescent assay; format: cell-based
T2 sequence (P18910 whole entry): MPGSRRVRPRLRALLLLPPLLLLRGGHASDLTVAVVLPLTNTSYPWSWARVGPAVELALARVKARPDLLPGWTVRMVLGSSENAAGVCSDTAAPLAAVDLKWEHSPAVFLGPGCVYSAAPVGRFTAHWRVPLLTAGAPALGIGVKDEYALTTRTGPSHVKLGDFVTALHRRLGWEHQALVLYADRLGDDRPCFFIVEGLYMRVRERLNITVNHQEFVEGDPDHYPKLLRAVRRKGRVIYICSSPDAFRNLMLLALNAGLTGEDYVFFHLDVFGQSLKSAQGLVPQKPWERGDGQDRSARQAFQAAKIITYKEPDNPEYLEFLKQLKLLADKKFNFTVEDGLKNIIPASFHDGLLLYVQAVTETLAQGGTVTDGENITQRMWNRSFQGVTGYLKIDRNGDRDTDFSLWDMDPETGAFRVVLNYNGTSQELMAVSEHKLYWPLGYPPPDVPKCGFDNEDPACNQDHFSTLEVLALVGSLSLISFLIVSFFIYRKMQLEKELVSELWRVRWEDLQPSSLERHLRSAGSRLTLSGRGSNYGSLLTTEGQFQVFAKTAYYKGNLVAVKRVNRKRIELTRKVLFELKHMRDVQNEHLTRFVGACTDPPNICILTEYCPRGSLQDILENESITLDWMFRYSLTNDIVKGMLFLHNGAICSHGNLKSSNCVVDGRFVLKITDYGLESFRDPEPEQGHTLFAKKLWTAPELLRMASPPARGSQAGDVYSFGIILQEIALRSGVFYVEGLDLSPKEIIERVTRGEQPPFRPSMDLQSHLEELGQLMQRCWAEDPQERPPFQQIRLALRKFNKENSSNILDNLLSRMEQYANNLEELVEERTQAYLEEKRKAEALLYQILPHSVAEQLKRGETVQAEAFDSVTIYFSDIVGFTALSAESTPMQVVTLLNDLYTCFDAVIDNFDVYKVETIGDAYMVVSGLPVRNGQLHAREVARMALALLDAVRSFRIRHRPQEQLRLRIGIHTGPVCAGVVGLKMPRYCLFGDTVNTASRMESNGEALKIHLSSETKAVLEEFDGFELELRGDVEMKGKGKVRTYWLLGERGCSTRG

[4] = test system: Rattus norvegicus; assay: In vivo agonist activity at NPR-A in Crl:CD(SD) rat assessed as increase in cGMP accumulation in lung at 30 ug/kg/min, iv; format: functional, organism-based
[5] = test system: Rattus norvegicus; assay: Diuretic activity in iv dosed Crl:CD(SD) rat assessed as increase in urine volume administered as bolus dose measured up to 60 mins; format: functional, organism-based
[6] = test system: Rattus norvegicus; assay: In vivo agonist activity at NPR-A in Crl:CD(SD) rat assessed as increase in cGMP accumulation in kidney at 1 ug/kg/min, iv administered as infusion over 30 mins by radioimmunoassay; format: functional, organism-based
[7] = test system: Rattus norvegicus; assay: Diuretic activity in Crl:CD(SD) rat assessed as increase in urine volume at 10 ug/kg, iv administered as bolus dose measured up to 60 mins; format: functional, organism-based

- EC50 [1]: 0.019 µM
SMILES: CC(C)CC1C(=O)N=C(N)N1c1nc(NC(=N)N)nc(Nc2ccc(Nc3nc(NC(=N)N)nc(N4C(N)=NC(=O)C4C)n3)cc2)n1 (configuration not stated)

- EC50 [1]: > 10 µM
SMILES: CC1C(=O)N=C(N)N1c1nc(NC(=N)N)nc(Nc2ccc(Nc3nc(NC(=N)N)nc(N4C(N)=NC(=O)C4C)n3)cc2)n1 (configuration not stated)

- EC50 [1]: 64 µM
SMILES: C/N=C(\N(C)C)N(C)c1nc(Nc2ccccc2)nc(N2C(N)=NC(=O)C2CC(C)C)n1 (configuration not stated)

- EC50 [1]: 0.002 µM
- EC50 [3]: 0.023 µM
SMILES: CCCCC1C(=O)N=C(N)N1c1nc(NC(=N)N)nc(Nc2ccc(Nc3nc(NC(=N)N)nc(N4C(N)=NC(=O)C4CCCC)n3)cc2)n1 (configuration not stated)
- Activity [2]: Dose-dependent effect
- Activity [4]: Active
- Activity [5]: Dose-dependent effect

- EC50 [1]: 4 µM
SMILES: CC(C)CC1C(=O)N=C(N)N1c1nc(NC(=N)N)nc(Nc2ccccc2)n1 (configuration not stated)

- EC50 [1]: 0.0058 µM
SMILES: CC(C)CC1C(=O)N=C(N)N1c1nc(NC(=N)N)nc(Nc2ccc(Nc3nc(NC(=N)N)nc(N4C(N)=NC(=O)C4CC(C)C)n3)cc2)n1 (configuration not stated)

SMILES: CC[C@H](C)[C@@H]1NC(=O)[C@H](CCCNC(=N)N)NC(=O)[C@H](CC(=O)O)NC(=O)[C@H](CCSC)NC(=O)[C@H](CCCNC(=N)N)NC(=O)CNC(=O)CNC(=O)[C@H](Cc2ccccc2)NC(=O)[C@@H](NC(=O)[C@H](CO)NC(=O)[C@H](CO)NC(=O)[C@H](CCCNC(=N)N)NC(=O)[C@H](CCCNC(=N)N)NC(=O)[C@H](CC(C)C)NC(=O)[C@@H](N)CO)CSSC[C@@H](C(=O)N[C@@H](CC(N)=O)C(=O)N[C@@H](CO)C(=O)N[C@@H](Cc2ccccc2)C(=O)N[C@@H](CCCNC(=N)N)C(=O)N[C@@H](Cc2ccc(O)cc2)C(=O)O)NC(=O)CNC(=O)[C@H](CC(C)C)NC(=O)CNC(=O)[C@H](CO)NC(=O)[C@H](CCC(N)=O)NC(=O)[C@H](C)NC(=O)CNC1=O
- Activity [6]: Active
- Activity [7]: Active

- EC50 [1]: 0.0081 µM
- EC50 [3]: 0.076 µM
SMILES: CC(C)CC1C(=O)N=C(N)N1c1nc(NC(=N)N)nc(NC2CCC(Nc3nc(NC(=N)N)nc(N4C(N)=NC(=O)C4CC(C)C)n3)CC2)n1 (configuration not stated)
- Activity [2]: Dose-dependent effect
- Activity [4]: Active
- Activity [5]: Dose-dependent effect
